Experimental data taken from ChEMBL document CHEMBL1149045, “Further butenolides from the Caribbean octocoral Pterogorgia citrina” (J Nat Prod, 1994).
Activity calls are given as the source filed them. The calls are words filed in the database; no cut-off is given here.

How the values were obtained:
[1] = test system: Staphylococcus aureus; experiment: Antimicrobial activity against Staphylococcus aureus at 1 ug/disk; format: functional, organism-based
[2] = test system: Escherichia coli; experiment: Antimicrobial activity against Escherichia coli at 1 ug/disk; format: functional, organism-based
[3] = test system: Staphylococcus aureus; experiment: Antimicrobial activity against Staphylococcus aureus at 5 ug/disk; format: functional, organism-based
[4] = test system: Staphylococcus aureus; experiment: Antimicrobial activity against Staphylococcus aureus at 10 ug/disk; format: functional, organism-based
[5] = test system: Escherichia coli; experiment: Antimicrobial activity against Escherichia coli at 5 ug/disk; format: functional, organism-based
[6] = test system: Escherichia coli; experiment: Antimicrobial activity against Escherichia coli at 10 ug/disk; format: functional, organism-based
[7] = test system: HCT-116; experiment: Cytotoxicity against human HCT116 cells; format: functional, cell-based

SMILES	Activity [1]	Activity [2]	Activity [3]	Activity [4]	Activity [5]	Activity [6]	IC50 [7] [µg/mL]
CC(=O)O[C@H]1[C@H](C)OC(=O)[C@H]1CCCCCCCCCCCCCCC1=C[C@H](C)OC1=O	inactive	inactive	inactive	inactive	inactive	inactive	
C[C@@H]1OC(=O)[C@@H](CCCCCCCCCCCCC2=C[C@H](C)OC2=O)[C@H]1O	inactive	inactive	inactive	inactive	inactive	inactive	
CC(=O)O[C@@H]1[C@H](C)OC(=O)[C@@H]1CCCCCCCCCCCCC1=C[C@H](C)OC1=O [ANCEPSENOLIDE ACETATE]	inactive	inactive	inactive	inactive	inactive	inactive	> 50
C[C@H]1C=C(CCCCCCCCCCCCCCC2=C[C@H](C)OC2=O)C(=O)O1 [HOMOANCEPSENOLIDE]	inactive	inactive	inactive	inactive	inactive	inactive	> 50
CC(=O)O[C@@H]1[C@H](C)OC(=O)[C@@H]1CCCCCCCCCCCCCCC1=C[C@H](C)OC1=O	inactive	inactive	inactive	inactive	inactive	inactive	
C[C@H]1C=C(CCCCCC/C=C\CCCCCCC2=C[C@H](C)OC2=O)C(=O)O1	inactive	inactive	inactive	inactive	inactive	inactive	> 50
CC(=O)O[C@H]1[C@H](C)OC(=O)[C@H]1CCCCCCCCCCCCC1=C[C@H](C)OC1=O	inactive	inactive	inactive	inactive	inactive	inactive	
CC(=O)O[C@@H]1[C@H](C)OC(=O)[C@@H]1CCCCCC/C=C\CCCCCCC1=C[C@H](C)OC1=O	inactive	inactive	inactive	inactive	inactive	inactive	
